Source: ChEMBL document CHEMBL1201862, “PubChem BioAssay data set” (2004)
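48-hour exposure; five concentrations; linearly interpolated endpoints. GI50 = concentration required for 50% inhibition of growth.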 Calls of active or inactive are those of the source. Cut-off read from the data, not from the text of the source: active = GI50 up to about 1.1 µM and inactive = higher.

Legend:
Assay in all cases: inhibition of tumour cell growth, NCI panel, 48 h
[1] = tested on: HT-29
[2] = tested on: HL-60
[3] = tested on: M14
[4] = tested on: SNB-19
[5] = tested on: OVCAR-8
[6] = tested on: MOLT-4
[7] = tested on: UACC-62
[8] = tested on: SF-539
[9] = tested on: U-251
[10] = tested on: K562
[11] = tested on: DMS-273
[12] = tested on: SK-MEL-28
[13] = tested on: TK-10
[14] = tested on: A549
[15] = tested on: HCT-116
[16] = tested on: ACHN
[17] = tested on: UACC-257
[18] = tested on: LXFL 529
[19] = tested on: UO-31
[20] = tested on: NCI-H226
[21] = tested on: RPMI-8226
[22] = tested on: KM12
[23] = tested on: CCRF-CEM
[24] = tested on: COLO 205
[25] = tested on: XF498
[26] = tested on: SW-620
[27] = tested on: KM-20L2
[28] = tested on: NCI-H23
[29] = tested on: DLD-1
[30] = tested on: SNB-75
[31] = tested on: SK-MEL-5
[32] = tested on: SF-295
[33] = tested on: SK-MEL-2
[34] = tested on: HCC 2998
[35] = tested on: HOP-62
[36] = tested on: IGROV-1
[37] = tested on: Malme-3M
[38] = tested on: SR
[39] = tested on: NCI-H522
[40] = tested on: DMS-114
[41] = tested on: SF-268
[42] = tested on: NCI-H460
[43] = tested on: HCT-15
[44] = tested on: OVCAR-3
[45] = tested on: HOP-92
[46] = tested on: 786-0
[47] = tested on: OVCAR-4
[48] = tested on: CAKI-1
[49] = tested on: OVCAR-5
[50] = tested on: RXF 393
[51] = tested on: SN12C
[52] = tested on: EKVX
[53] = tested on: LOX IMVI
[54] = tested on: M19-MEL
[55] = tested on: SNB-78
[56] = tested on: NCI/ADR-RES
[57] = tested on: DU-145
[58] = tested on: PC-3
[59] = tested on: MCF7
[60] = tested on: MDA-MB-435
[61] = tested on: T47D
[62] = tested on: BT-549
[63] = tested on: MDA-MB-231
[64] = tested on: A498
[65] = tested on: SK-OV-3
[66] = tested on: Hs-578T
[67] = tested on: MDA-N

## Cc1ccc(NCC2(/N=C/c3ccccc3)OC(CO)C(O)C2O)cc1 (stereo not drawn)
[1]
  GI50: 35.8 µM (inactive)
[2]
  GI50: 20.5 µM (inactive)
[3]
  GI50: 40.9 µM (inactive)
[4]
  GI50: > 100 µM (inactive)
[5]
  GI50: > 100 µM (inactive)
[6]
  GI50: 40.1 µM (inactive)
[7]
  GI50: 54.1 µM (inactive)
[8]
  GI50: 41.7 µM (inactive)
[9]
  GI50: 24.2 µM (inactive)
[10]
  GI50: 27.9 µM (inactive)
[11]
  GI50: 31.2 µM (inactive)
[12]
  GI50: 62.5 µM (inactive)
[13]
  GI50: > 100 µM (inactive)
[14]
  GI50: 44 µM (inactive)
[15]
  GI50: 36.6 µM (inactive)
[16]
  GI50: 74.3 µM (inactive)
[17]
  GI50: > 100 µM (inactive)
[18]
  GI50: 77.6 µM (inactive)
[19]
  GI50: 61.7 µM (inactive)
[20]
  GI50: > 100 µM (inactive)
[21]
  GI50: 35 µM (inactive)
[22]
  GI50: 67.9 µM (inactive)
[23]
  GI50: 31.6 µM (inactive)
[24]
  GI50: 42.2 µM (inactive)
[25]
  GI50: > 100 µM (inactive)
[26]
  GI50: 36.7 µM (inactive)
[27]
  GI50: 20.8 µM (inactive)
[28]
  GI50: 54.1 µM (inactive)
[29]
  GI50: 72.4 µM (inactive)
[30]
  GI50: 26.2 µM (inactive)
[31]
  GI50: 23.3 µM (inactive)
[32]
  GI50: 24.3 µM (inactive)
[33]
  GI50: 31 µM (inactive)
[34]
  GI50: 91.2 µM (inactive)
[35]
  GI50: 12.4 µM (inactive)
[36]
  GI50: > 100 µM (inactive)
[37]
  GI50: 37.2 µM (inactive)
[38]
  GI50: 27.1 µM (inactive)
[39]
  GI50: 37.5 µM (inactive)
[40]
  GI50: 40 µM (inactive)
[41]
  GI50: 81.1 µM (inactive)
[42]
  GI50: 32.7 µM (inactive)
[43]
  GI50: 26.5 µM
[44]
  GI50: 41.7 µM (inactive)
[45]
  GI50: 64 µM (inactive)
[46]
  GI50: 49.5 µM (inactive)
[47]
  GI50: 60.1 µM (inactive)
[48]
  GI50: 46.6 µM (inactive)
[49]
  GI50: > 100 µM (inactive)

## CSc1sc(=S)sc1C(=O)N(C)c1ccccc1
[1]
  GI50: > 100 µM (inactive)
[2]
  GI50: 35.6 µM (inactive)
[50]
  GI50: 81.5 µM (inactive)
[3]
  GI50: > 100 µM (inactive)
[4]
  GI50: > 100 µM (inactive)
[5]
  GI50: > 100 µM (inactive)
[6]
  GI50: 84.5 µM (inactive)
[51]
  GI50: > 100 µM (inactive)
[7]
  GI50: 78.7 µM (inactive)
[8]
  GI50: > 100 µM (inactive)
[9]
  GI50: > 100 µM (inactive)
[52]
  GI50: > 100 µM (inactive)
[10]
  GI50: > 100 µM (inactive)
[11]
  GI50: > 100 µM (inactive)
[12]
  GI50: > 100 µM (inactive)
[13]
  GI50: > 100 µM (inactive)
[14]
  GI50: > 100 µM (inactive)
[53]
  GI50: > 100 µM (inactive)
[15]
  GI50: > 100 µM (inactive)
[16]
  GI50: > 100 µM (inactive)
[18]
  GI50: > 100 µM (inactive)
[19]
  GI50: > 100 µM (inactive)
[20]
  GI50: > 100 µM (inactive)
[21]
  GI50: 52.7 µM (inactive)
[22]
  GI50: 91.8 µM (inactive)
[23]
  GI50: 56 µM (inactive)
[24]
  GI50: > 100 µM (inactive)
[25]
  GI50: > 100 µM (inactive)
[26]
  GI50: > 100 µM (inactive)
[27]
  GI50: > 100 µM (inactive)
[28]
  GI50: > 100 µM (inactive)
[30]
  GI50: 22.6 µM (inactive)
[31]
  GI50: > 100 µM (inactive)
[32]
  GI50: > 100 µM (inactive)
[54]
  GI50: > 100 µM (inactive)
[33]
  GI50: > 100 µM (inactive)
[35]
  GI50: > 100 µM (inactive)
[36]
  GI50: > 100 µM (inactive)
[37]
  GI50: > 100 µM (inactive)
[38]
  GI50: 83 µM (inactive)
[39]
  GI50: 48.8 µM (inactive)
[55]
  GI50: > 100 µM (inactive)
[40]
  GI50: > 100 µM (inactive)
[41]
  GI50: > 100 µM (inactive)
[42]
  GI50: > 100 µM (inactive)
[43]
  GI50: > 100 µM
[44]
  GI50: 91.8 µM (inactive)
[46]
  GI50: > 100 µM (inactive)
[47]
  GI50: > 100 µM (inactive)
[49]
  GI50: > 100 µM (inactive)

## NC1CC(=O)c2c(Cl)sc(Cl)c21 (stereo not drawn)
[1]
  GI50: 1.72 µM (inactive)
[2]
  GI50: 1.6 µM (inactive)
[50]
  GI50: 1.45 µM (inactive)
[3]
  GI50: 3.85 µM (inactive)
[4]
  GI50: 13.2 µM (inactive)
[56]
  GI50: 15 µM (inactive)
[5]
  GI50: 5.46 µM (inactive)
[6]
  GI50: 2.18 µM (inactive)
[51]
  GI50: 2.05 µM (inactive)
[7]
  GI50: 2.64 µM (inactive)
[8]
  GI50: 2.37 µM (inactive)
[57]
  GI50: 5.55 µM (inactive)
[9]
  GI50: 3.77 µM (inactive)
[52]
  GI50: 2 µM (inactive)
[58]
  GI50: 6.21 µM (inactive)
[10]
  GI50: 2.03 µM (inactive)
[59]
  GI50: 1.82 µM (inactive)
[60]
  GI50: 4.62 µM (inactive)
[12]
  GI50: 1.73 µM (inactive)
[13]
  GI50: 2.43 µM (inactive)
[14]
  GI50: 12.7 µM (inactive)
[53]
  GI50: 1.51 µM (inactive)
[15]
  GI50: 1.43 µM (inactive)
[16]
  GI50: 2.33 µM (inactive)
[17]
  GI50: 3.16 µM (inactive)
[19]
  GI50: 9.86 µM (inactive)
[20]
  GI50: 14.4 µM (inactive)
[21]
  GI50: 2.37 µM (inactive)
[22]
  GI50: 3.06 µM (inactive)
[23]
  GI50: 0.885 µM (active)
[24]
  GI50: 1.63 µM (inactive)
[61]
  GI50: 1.74 µM (inactive)
[62]
  GI50: 3.76 µM (inactive)
[26]
  GI50: 1.68 µM (inactive)
[28]
  GI50: 10.5 µM (inactive)
[30]
  GI50: 14.1 µM (inactive)
[31]
  GI50: 8.79 µM (inactive)
[32]
  GI50: 14 µM (inactive)
[33]
  GI50: 12.4 µM (inactive)
[34]
  GI50: 10.1 µM (inactive)
[63]
  GI50: 2.19 µM (inactive)
[35]
  GI50: 10.7 µM (inactive)
[36]
  GI50: 4.12 µM (inactive)
[37]
  GI50: 2.22 µM (inactive)
[38]
  GI50: 0.493 µM (active)
[39]
  GI50: 1.48 µM (inactive)
[64]
  GI50: 15.3 µM (inactive)
[65]
  GI50: 14.4 µM (inactive)
[41]
  GI50: 15.8 µM (inactive)
[42]
  GI50: 14.5 µM (inactive)
[43]
  GI50: 1.63 µM
[44]
  GI50: 6.47 µM (inactive)
[45]
  GI50: 1.47 µM (inactive)
[46]
  GI50: 1.41 µM (inactive)
[47]
  GI50: 6.44 µM (inactive)
[48]
  GI50: 2.7 µM (inactive)
[49]
  GI50: 19.3 µM (inactive)
[66]
  GI50: 19.2 µM (inactive)
[67]
  GI50: 4.56 µM (inactive)
